Laboratory results as given in patent US20240117357A1, “REGULATION OF METABOLISM AND OBESITY BY MITOCHONDRIAL MUL1 E3 UBIQUITIN LIGASE” (University of Central Florida Research Foundation, Inc., priority 2022, published 2024).

Tests used:
Assay type in all cases: cell-based, human
HEK293 WT cells = test: Glycolytic Stress Test (ECAR, Seahorse XFe24); conditions: DMOG 100 μM for 4 hours
Experimental: (§1) To monitor glycolysis in the cell lines, the Glycolysis Stress Test was performed using a XFe24 Extracellular Flux Analyzer (Agilent Technologies). HEK293 WT, MUL1(−/−) and Akt2(−/−) cells were seeded in triplicates on poly-lysine D-coated XFe24 microplates at a density of 60,000 cells per well in assay medium (XF DMEM pH 7.4 containing 2 mM glutamine and 1 mM sodium pyruvate without glucose) for one hour in a CO2-free incubator. Extracellular acidification rate (ECAR) was measured under basal conditions and again after sequential injections of glucose (10 mM) in port A, ATP synthase inhibitor oligomycin (1.5 μM) in port B, and the glycolysis inhibitor 2-deoxyglucose (2-DG) (300 mM) in port C. Basal glycolysis was assessed by recording three measurements, following the addition of each compound by a 3-2-3 mix/measurement cycle. Glycolysis is the ECAR after the addition of glucose. Glycolytic capacity is the increase in ECAR after the injection of oligomycin following glucose. Glycolytic reserve is the difference between glycolytic capacity and glycolysis. Data analysis was performed using Report Generators software for Glycolysis Stress Test (Agilent Technologies).

HEK293 Akt2(−/−) cells [1] = test: Glycolytic Stress Test (ECAR, Seahorse XFe24); conditions: DMOG 100 μM for 4 hours
Experimental: as §1

HEK293 Akt2(−/−) cells [2] = test: 13C-NMR isotopomer metabolic flux analysis ([U-13C]glucose, tcaCALC)
Experimental: For NMR analysis, approximately 20×10^6 HEK293 WT, MUL1(−/−), or Akt2(−/−) cells were grown to confluency following treatment with perifosine, or chetomin inhibitors as well as with the HIF-1α activator DMOG and DMSO was used as vehicle control. Freshly prepared [U-^13C]glucose tracer containing medium (glucose free DMEM with 10% dialyzed FBS and 15 mM [U-^13C]glucose) was added to the cells for 6 hours at 37° C. Cells were scraped from the plates, washed twice with cold PBS, and immediately snap frozen in liquid nitrogen (161).
Cell pellets were bead-homogenized in 1 ml acetonitrile:isopropanol:water (3:3:2, v:v:v), centrifuged at 10,000×g for 15 min at 4° C. and the supernatant removed and dried in a speedvac. Dried cell extracts of each sample were re-suspended in 0.5 ml of acetonitrile: water (1:1, v:v) solution, vortexed, and centrifuged for 15 min at 10,000×g at 4° C. The supernatant was transferred to a new tube and dried in a speedvac The dried extract of each cell pellet was re-suspended in phosphate buffer (prepared in Deuterium oxide (D2O)) for NMR analysis. […]
^1H-NMR spectra were collected on an 800 MHz NMR, equipped with a 5 mm TXI CryoProbe and Avance III console (Bruker Biospin), using TopSpin software (version 3.6.3). […] The conventional ^1H-decoupled ^13C-NMR spectra were acquired for each sample at 150.13 MHz, using a ^13C-optimized 1.5 mm high temperature superconducting (HTS) probe on an Agilent NMR system with the magnetic field strength of 14 tesla. ^13C-NMR spectra were recorded using an acquisition time (AQ) of 1.5 sec, relaxation delay (dl) of 1.5 sec, flip angle of 45°, acquired size (TD) of 54 k with the spectral width of 250 ppm (Ramaswamy et al., 2013). […]
The positional ^13C-isotopomer distribution pattern of glutamate was determined by ^13C-NMR. ^13C-NMR resonances of various isotopomers of glutamate are identified from the ^13C-^13C J-coupling constants and quantified by line fitting to the glutamate resonances at C2, C3, C4, and C5 positions. […]

HEK293 MUL1(−/−) cells [3] = test: Glycolytic Stress Test (ECAR, Seahorse XFe24); conditions: 2.5 μM perifosine or 500 nM chetomin for 4 hours
Experimental: as §1

HIF-1α = test: Western blot of HIF-1α target protein GLUT1; conditions: 500 nM chetomin for 4 hours
Experimental: (§2) Control (untreated) as well as cells treated with perifosine, chetomin or DMOG were lysed using a Triton X-100 based lysis buffer (1% Triton X-100, 10% glycerol, 150 mM NaCl, 20 mM Tris (pH 7.5), 2 mM EDTA) in the presence of protease inhibitors (Thermo Fisher Scientific). Approximately 40 μg of whole cell extract was resuspended in SDS sample buffer, boiled for 4 minutes, and analyzed by SDS-PAGE (12% or 15% gels), then transferred onto PVDF membranes (Genesee) using a semi-dry cell transfer blot (Bio-Rad). Nonfat dry milk (4%) or 5% BSA (for Akt2 and phospho-specific antibodies) in TBST buffer (25 mM Tris-HCl, pH 8.0, 125 mM NaCl, 0.1% Tween 20) were used to block nonspecific binding of the membrane. The membranes were incubated with the indicated primary antibodies: HIF-1α (Bioss Antibodies, 1:2,000), AKT (pan), Akt1, Akt2, Akt3, phospho-Akt-T308, phospho-GSK-3β-S9, ULK1 (Cell Signaling Technology 1:2,000), GLUT1, (ABclonal 1:2,000), MFN2, and β-actin (Santa Cruz Biotechnology, 1:3,000). MUL1 and UBXN7 rabbit polyclonal antibodies were homegrown and used at 1:5,000 dilution. Secondary peroxidase-conjugated goat anti-rabbit or goat anti-mouse antibodies (Jackson ImmunoResearch) were used at 1:10,000 dilution. The membrane was visualized by enhanced chemiluminescence (ECL) (Thermo Fisher Scientific).

HEK293 MUL1(−/−) cells [4] = test: Mitochondrial Stress Test (OCR, Seahorse XFe24); conditions: for oxygen consumption rate (OCR): HEK293 MUL1(−/−) cells, 2.5 μM perifosine or 500 nM chetomin for 4 hours; for mitochondrial respiration: at the concentration used (2.5 μM perifosine, 500 nM chetomin, 4 hours)
Experimental: Mitochondrial stress assay was performed using an XFe24 Extracellular Flux Analyzer (Agilent Technologies) following the workflow provided by the manufacturer's instructions. Briefly, for Oxygen Consumption Rate (OCR) measurements, HEK293 WT and MUL1(−/−) cells were seeded in triplicates on poly-lysine D-coated XF24 microplates at a density of approximately 60,000 cells per well in assay medium (XF DMEM medium pH 7.4 supplemented with 10 mM glucose, 2 mM glutamine, and 1 mM pyruvate), followed by incubation at 37° C. in CO2-free incubator for 60 minutes. Three baseline measurements were recorded before the injection of the following compounds: 1.5 μM of oligomycin in port A, 1.0 μM of FCCP in port B and 0.5 μM rotenone/antimycin in port C. Data analysis was performed using Cell Mito Stress Test Report Generators software (Agilent Technologies).

Akt2 = test: Western blot of Akt2 target P-GSK-3β S9; conditions: 2.5 μM perifosine for 4 hours
Experimental: as §2

SMILES	glycolysis and glycolytic capacity (HEK293 WT cells)	glycolysis and glycolytic capacity (HEK293 Akt2(−/−) cells [1])	YPC flux (HEK293 Akt2(−/−) cells [2]; Akt2(−/−)+DMOG cells compared with HEK293 WT and MUL1(−/−) cells)	PK flux (HEK293 Akt2(−/−) cells [2]; Akt2(−/−)+DMOG cells compared with HEK293 WT cells)	PK, YPC, and YS fluxes (HEK293 Akt2(−/−) cells [2]; Akt2(−/−)+DMOG vs Akt2(−/−) cells, relative to citrate synthase flux of 1)	ECAR and glycolysis (glycolytic function) (HEK293 MUL1(−/−) cells [3])	expression of GLUT1 (HIF-1α)	oxygen consumption rate (OCR) (HEK293 MUL1(−/−) cells [4])	mitochondrial respiration (HEK293 MUL1(−/−) cells [4])	Akt2 kinase activity (P-GSK-3β S9) (Akt2)
COC(=O)CNC(=O)C(=O)OC [DMOG, dimethyloxalyglycine]	unremarkable	small but significant increase	elevated above WT, but fell short of reaching MUL1(−/−) levels	partially restored with DMOG, but did not reach the WT levels	significantly increased					
CN1C(=O)[C@]2(Cc3cn([C@]45C[C@@]67SS[C@@](CO)(C(=O)N6[C@H]4Nc4ccccc45)N(C)C7=O)c4ccccc34)SS[C@@]1(CO)C(=O)N2C [chetomin]						very potent inhibitor of the mitochondrial glycolytic function	significantly reduces	further reduced	potent inhibitors of mitochondrial respiration	
CCCCCCCCCCCCCCCCCCOP(=O)([O-])OC1CC[N+](C)(C)CC1 [perifosine]						reduced ECAR and glycolysis to a level lower than the one present in HEK293 WT cells		further reduced	potent inhibitors of mitochondrial respiration	inhibits
